pIC50: −log10 of the molar value. Blank lines part the entries; values can stand above or below the molecule they belong to.
Columns and labels:
SMMC-7721 [1] = assay: Antiproliferative activity against human SMMC-7721 cells assessed as reduction in cell viability; type: functional, cell-based
L1210 [2] = assay: Antiproliferative activity against mouse L1210 cells assessed as reduction in cell viability; type: functional, cell-based
HL-60 [3] = assay: Antiproliferative activity against human HL-60 cells assessed as reduction in cell viability; type: functional, cell-based
Hep 3B2 [4] = assay: Antiproliferative activity against human Hep3B cells assessed as reduction in cell viability; type: functional, cell-based
CAPAN-1 [5] = assay: Antiproliferative activity against human CAPAN-1 cells assessed as reduction in cell viability; type: functional, cell-based
Huh-7 = assay: Anticancer activity against human Huh-7 cells assessed as reduction in cell viability incubated for 24 hrs by MTT assay; type: functional, cell-based; settings: Huh-7, 24 h
L1210 [6] = assay: Antiproliferative activity against mouse L1210 cells assessed as reduction in cell viability by MTT assay; type: functional, cell-based
Hep 3B2 [7] = assay: Antiproliferative activity against human Hep3B cells assessed as reduction in cell viability incubated for 48 hrs by MTT assay; type: functional, cell-based
SMMC-7721 [8] = assay: Antiproliferative activity against human SMMC-7721 cells assessed as reduction in cell viability incubated for 48 hrs by MTT assay; type: functional, cell-based; settings: SMMC-7721, 48 h
MCF7 [9] = assay: Antiproliferative activity against human MCF7 cells assessed as reduction in cell viability incubated for 48 hrs by MTT assay; type: functional, cell-based; settings: MCF7, 48 h
HCT-8 = assay: Antiproliferative activity against human HCT-8 cells assessed as reduction in cell viability incubated for 48 hrs by MTT assay; type: functional, cell-based; settings: HCT-8, 48 h
[10] = Cytotoxicity against mouse BMSC cells assessed as reduction in cell viability incubated for 48 hrs by MTT assay; type: toxicity, cell-based
SMMC-7721 [11] = assay: Antitumor activity against human SMMC-7721 cells assessed as reduction in cell viability by MTT assay; type: functional, cell-based
L1210 [12] = assay: Antitumor activity against mouse L1210 cells assessed as reduction in cell viability by MTT assay; type: functional, cell-based
HL-60 [13] = assay: Antitumor activity against human HL-60 cells assessed as reduction in cell viability by MTT assay; type: functional, cell-based
Hep 3B2 [14] = assay: Antitumor activity against human Hep3B cells assessed as reduction in cell viability by MTT assay; type: functional, cell-based
CAPAN-1 [15] = assay: Antitumor activity against human CAPAN-1 cells assessed as reduction in cell viability by MTT assay; type: functional, cell-based
SK-MEL3 = assay: Anticancer activity against human SK-MEL3 cells assessed as reduction in cell viability incubated for 72 hrs by MTT assay; type: functional, cell-based; settings: SK-MEL3, 72 h
MCF7 [16] = assay: Anticancer activity against human MCF7 cells assessed as reduction in cell viability incubated for 72 hrs by MTT assay; type: functional, cell-based; settings: MCF7, 72 h
A-431 = assay: Anticancer activity against human A-431 cells assessed as reduction in cell viability incubated for 72 hrs by MTT assay; type: functional, cell-based; settings: A-431, 72 h
EJ = assay: Anticancer activity against human EJ cells assessed as reduction in cell viability incubated for 72 hrs by MTT assay; type: functional, cell-based
KB = assay: Anticancer activity against human KB cells assessed as reduction in cell viability incubated for 72 hrs by MTT assay; type: functional, cell-based
SW480 = assay: Anticancer activity against human SW480 cells assessed as reduction in cell viability incubated for 72 hrs by MTT assay; type: functional, cell-based; settings: SW480, 72 h
CT26 = assay: Antitumor activity against mouse CT26 cells assessed as reduction in cell viability incubated for 4 hrs by MTT assay; type: functional, cell-based; settings: CT26, 4 h
A549 = assay: Antitumor activity against human A549 cells assessed as reduction in cell viability incubated for 4 hrs by MTT assay; type: functional, cell-based; settings: A549, 4 h
[17] = Cytotoxicity against Chinese hamster CHO cells assessed as reduction in cell viability by MTT assay; type: toxicity, cell-based, Cricetulus griseus
HL-60 [18] = assay: Cytotoxicity against human HL-60 cells assessed as reduction in cell viability by MTT assay; type: functional, cell-based
L1210 [19] = assay: Cytotoxicity against mouse L1210 cells assessed as reduction in cell viability by MTT assay; type: functional, cell-based
SiHa = assay: Antiproliferative activity against human SiHa cells assessed as cell growth inhibition incubated for 48 hrs by sulforhodamine B assay; type: functional
PANC-1 = assay: Antiproliferative activity against human PANC-1 cells assessed as cell growth inhibition incubated for 48 hrs by sulforhodamine B assay; type: functional
L1210 [20] = assay: Anticancer activity against mouse L1210 cells assessed as reduction in cell viability by MTT assay; type: functional, cell-based
[21] = Cytotoxicity against Chinese hamster CHO cells assessed as reduction in cell viability incubated for 48 hrs by MTT assay; type: toxicity, cell-based, Cricetulus griseus
HL-60 [22] = assay: Cytotoxicity against human HL-60 cells assessed as reduction in cell viability incubated for 48 hrs by MTT assay; type: functional, cell-based; settings: HL-60, 48 h
L1210 [23] = assay: Cytotoxicity against mouse L1210 cells assessed as reduction in cell viability incubated for 48 hrs by MTT assay; type: functional, cell-based; settings: L1210, 48 h
SMMC-7721 [24] = assay: Antiproliferative activity against human SMMC-7721 cells assessed as reduction in cell viability incubated for 24 hrs by MTT assay; type: functional, cell-based; settings: SMMC-7721, 24 h
CAKI-1 = assay: Anticancer activity against human CAKI-1 cells assessed as cell growth inhibition; type: functional; settings: pooled result: one value given for 3 cell lines, strains, targets or settings

SMILES: Nc1nnc(-c2cn(C3CC3)c3cc(N4CCNCC4)c(F)cc3c2=O)s1
pIC50 (Huh-7): 4.59

SMILES: COc1cc(/C=N/NC(=O)c2cn3c4c(c(N5CCN(C)CC5)c(F)cc4c2=O)OC[C@@H]3C)cc(OC)c1OC
pIC50 (Hep 3B2 [7]): 5.66
pIC50 (SMMC-7721 [8]): 5.66
pIC50 (MCF7 [9]): 5.66
pIC50 (HCT-8): 5.66
IC50 at 48 h [10]: 7460 nM

SMILES: COc1ccc(-c2csc3nc(-c4cn5c6c(c(N7CCN(C)CC7)c(F)cc6c4=O)OCC5C)nn23)cc1 (stereo not given)
pIC50 (SMMC-7721 [11]): 4.57
pIC50 (L1210 [12]): 4.57
pIC50 (HL-60 [13]): 4.57
pIC50 (Hep 3B2 [14]): 4.57
pIC50 (CAPAN-1 [15]): 4.57

SMILES: CCn1cc(C(=O)O)c(=O)c2cnc(N3CCN(C(=O)CCSc4nnnn4-c4ccc(F)c(F)c4F)CC3)nc21
GI50 (SiHa): 60 nM
GI50 (PANC-1): 60 nM

SMILES: CCn1cc(-c2nn(CN(C)C)c(=S)o2)c(=O)c2cc(F)c(N3CCN(C)CC3)cc21
pIC50 (Hep 3B2 [4]): 5.08

SMILES: COc1cc(/C=N/n2c(-c3cn4c5c(c(N6CCN(C)CC6)c(F)cc5c3=O)OCC4C)nn(CN(C)C)c2=S)ccc1O (stereo not given)
IC50 at 48 h [21]: 140 nM
pIC50 (HL-60 [22]): 6.85
pIC50 (L1210 [23]): 6.85

SMILES: COc1ccc(/C=N/n2c(-c3cn4c5c(c(N6CCN(C)CC6)c(F)cc5c3=O)OCC4C)n[nH]c2=S)cc1O (stereo not given)
IC50 at 48 h [21]: 10500 nM
pIC50 (HL-60 [22]): 4.98
pIC50 (L1210 [23]): 4.98

SMILES: COc1ccccc1-c1nnc(CSc2nnc(-c3cn4c5c(c(N6CCN(C)CC6)c(F)cc5c3=O)OC[C@@H]4C)o2)o1
pIC50 [17]: 6.00
pIC50 (HL-60 [18]): 5.66
pIC50 (SMMC-7721 [24]): 5.89

SMILES: CC1COc2c(N3CCN(C)CC3)c(F)cc3c(=O)c(-c4nn(CN(C)C)c(=S)n4/N=C/c4ccccc4O)cn1c23 (stereo not given)
IC50 at 48 h [21]: 140 nM
pIC50 (HL-60 [22]): 6.85
pIC50 (L1210 [23]): 6.85

SMILES: C=C1CC(CN2CCN(c3cc4c(cc3F)c(=O)c(C(=O)O)cn4CC)CC2)(c2ccccc2)OC1=O (stereo not given)
GI50 (CAKI-1): 3390 nM

Now from value to molecule, other results behind:

pIC50 (SMMC-7721 [1]): 5.82
pIC50 (L1210 [2]): 5.82
pIC50 (HL-60 [3]): 5.82
SMILES: CCn1cc(-c2nc(SCc3nnc(-c4ccc(F)cc4)o3)n(CN(C)C)n2)c(=O)c2cc(F)c(N3CCN(C)CC3)cc21
pIC50 (Hep 3B2 [4]): 5.82
pIC50 (CAPAN-1 [5]): 5.82

pIC50 (L1210 [6]): ≥ 4.30
SMILES: CCN1CCN(c2cc3c(cc2F)c(=O)c(-c2nnc(S)n2N)cn3C2CC2)CC1

pIC50 (L1210 [6]): 6.70
SMILES: CCN1CCN(c2cc3c(cc2F)c(=O)c(-c2nnc4sc(-c5cn(C6CC6)c6cc(N7CCNCC7)c(F)cc6c5=O)nn24)cn3C2CC2)CC1

pIC50 (SK-MEL3): < 3.89
pIC50 (MCF7 [16]): < 3.89
pIC50 (A-431): < 3.89
pIC50 (KB): < 3.89
pIC50 (SW480): < 3.89
pIC50 (CT26): 3.48
pIC50 (A549): 3.48
pIC50 (L1210 [6]): < 3.82
SMILES: O=C(O)c1cn(C2CC2)c2cc(N3CCNCC3)c(F)cc2c1=O [CIPROFLOXACIN]
pIC50 (EJ): < 3.89
pIC50 [17]: < 3.82
pIC50 (HL-60 [18]): < 3.82
pIC50 (L1210 [19]): < 3.82

pIC50 (L1210 [20]): 6.85
SMILES: O=c1c(-c2n[nH]c3cc(-c4ccc(O)c(O)c4)nn23)cn(C2CC2)c2cc(N3CCNCC3)c(F)cc12

GI50 (PANC-1): 60 nM
SMILES: O=C(O)c1cn(C2CC2)c2cc(N3CCN(C(=O)CCSc4nnnn4-c4ccc(Br)cc4)CC3)c(F)cc2c1=O
GI50 (SiHa): 60 nM

pIC50 (SMMC-7721 [1]): 5.42
pIC50 (L1210 [2]): 5.42
pIC50 (HL-60 [3]): 5.42
SMILES: CCn1cc(-c2nnc(SCc3nnc(-c4ccc(F)cc4)o3)[nH]2)c(=O)c2cc(F)c(N3CCN(C)CC3)cc21
pIC50 (Hep 3B2 [4]): 5.42
pIC50 (CAPAN-1 [5]): 5.42

pIC50 (L1210 [6]): 5.92
SMILES: CCN1CCN(c2cc3c(cc2F)c(=O)c(-c2nn4c(-c5cn(C6CC6)c6cc(N7CCN(CC)CC7)c(F)cc6c5=O)nnc4s2)cn3C2CC2)CC1

From ChEMBL document CHEMBL5233217, “Modification of 7-piperazinylquinolone antibacterials to promising anticancer lead compounds: Synthesis and in vitro studies” (Eur J Med Chem, 2020)
